Marks after values point to notes of the source that are not given here.
Assays:
corneal cells = test: Vitro model of corneal ulcer: growth of corneal cells in culture in vitro; format: cell-based, ICR mice; details: cornea of immunised mice co-cultured with autologous leukocytes
Description: The rabbit corneas were taken and cut into pieces, 5-10 times volume of 5% triton solution was added and homogenized until there were no lumpy particles, then centrifuged at 3000 r/min for 10 min, and the supernatant was taken. 5 ml of the supernatant was taken and mixed with 5 ml of complete Freund's adjuvant to prepare a mixed solution for later use.
SPF grade ICR mice were divided into normal group, immune group, and cyclophosphamide group, 10 mice/group. The normal group received subcutaneous injection of 0.5 ml of physiological saline per mouse; Each mouse in the immune group and cyclophosphamide group was subcutaneously injected with the mixed solution+physiological saline, the mixed solution+cyclophosphamide 300 mg/kg respectively, and the injection sites were not overlapped; Injection was performed once every other day for a total of 10 times. 3 days after the last injection, the mice were euthanized using the bloodletting method, and the eyeballs were removed and cut into pieces under sterile conditions. At the same time, the cornea and the leukocytes separated from autologous blood were co-cultured in a 24-well culture plate.

guinea pig skin = test: Skin allergy test
[1] = 1 h after challenge and drug removal
[2] = 24 h after challenge and drug removal
[3] = 48 h after challenge and drug removal

| SMILES | Growth of corneal cells in culture in vitro, Number (corneal cells; Grow time 72 h) | Growth of corneal cells in culture in vitro, Percentage % (growth rate) (corneal cells; Grow time 72 h) | Growth of corneal cells in culture in vitro, Number (corneal cells; Grow time 120 h) | Growth of corneal cells in culture in vitro, Percentage % (growth rate) (corneal cells; Grow time 120 h) | Average score (guinea pig skin; [1]) | Number of allergic animals (guinea pig skin; [1]) | Total score (guinea pig skin; [1]) | Average score (guinea pig skin; [2]) | Number of allergic animals (guinea pig skin; [2]) | Total score (guinea pig skin; [2]) | Average score (guinea pig skin; [3]) | Number of allergic animals (guinea pig skin; [3]) | Total score (guinea pig skin; [3]) |
| --- | --- | --- | --- | --- | --- | --- | --- | --- | --- | --- | --- | --- | --- |
| O=P1(N(CCCl)CCCl)NCCCO1 (stereo not shown) [cyclophosphamide] | 8 | 16.0** % | 11 | 22.0** % | – | – | – | – | – | – | – | – | – |
| O=[N+]([O-])c1ccc(Cl)c([N+](=O)[O-])c1 [2,4-dinitrochlorobenzene] | – | – | – | – | 2.2 | 10 | 22 | 1.7 | 10 | 17 | 1.0 | 10 | 10 |
